Results as given in PubChem BioAssay AID1963980 (Molecular Pharmacology Branch, DTP, NCI, 2024).

System: 475296-252-R-J1-PDC spheroid viability
Assay: Anticancer human tumor 475296-252-R-J1-PDC patient-derived rectal carcinoma cell line growth inhibition [PI3K]
Conditions: spheroids with HUVEC and MSC; for IC50: curve of first compound; for viability, T/C: stronger effect = lower value; active means viability on the fitted dose curve at most 10% of control; inactive means the rest
Source text: Combinatorial screen of targeted agents with the PI3K inhibitors inavolisib, alpelisib, duvelisib, and copanlisib in multi-cell type tumor spheroids
A high-throughput screen of multi-cell type tumor spheroids was designed to identify active combinations of targeted small molecules and PI3K pathway inhibitors. Complex spheroids include a stromal component modeled by human endothelial cells (HUVEC) and fibroblasts modeled by human mesenchymal stem cells (MSCs). The concentration ranges selected for each drug and investigational agent were based upon clinically achievable concentrations if the clinical Cmax of the agent was known.
Compounds. The drugs and investigational agents: inavolisib (NSC800729), alpelisib (NSC765974), duvelisib (NSC772469), copanlisib (NSC816437), ipatasertib (NSC767898), afuresertib (NSC778305), talazoparib (NSC767125), sapanisertib (NSC764658), selumetinib (NSC741078), tovorafenib (DAY101, NSC766906), vemurafenib (NSC761431), ravoxertinib (NSC781343), sotorasib (NSC818433), MRTX1133 (NSC 836407), abemaciclib (NSC 768073), palbociclib (NSC758247), venetoclax (NSC 766270), SY5609 (NSC837396), enzalutamide (NSC755605), and darolutamide (NSC825331), were obtained from the National Cancer Institute (NCI) Developmental Therapeutics Program Chemical Repository. The FDA-approved anticancer drug set is available from the NCI Developmental Therapeutics Program. […] The stock solutions were prepared in dimethyl sulfoxide (DMSO, Sigma-Aldrich, St. Louis, MO, cat. D2650) at 800-fold the tested concentration and stored at -70 degrees C prior to their use. All drugs and investigational agents were tested over a range starting from a high concentration at or near the clinical Cmax and decreasing in half-log increments. If the clinical Cmax for an agent had not been determined, the highest concentration tested was 10 microM.
Cell Culture. All cells were maintained in an incubator at 37 degrees C and 5% CO2 with 95% humidity. The PDC lines were cultured according to standard operating procedures established by the NCI PDMR (https://pdmr.cancer.gov/sops/default.htm). All PDCs were thawed and cultured in Matrigel-coated flasks prepared with a working solution of 1X Ham's F-12 nutrient mix, without supplementation (Invitrogen, Waltham, MA, cat. 11765054), 100 U/mL penicillin-streptomycin (Invitrogen, cat. 15140122), and 2.5% Matrigel (Corning Inc., Corning, NY, cat. 354248) for the first three passages. The 354836-022-R-J1-PDC, 475296-252-R-J1-PDC, and 997726-040-R-J2-PDC lines were cultured in 6A media, which includes advanced DMEM/F-12 (Thermo Fisher Scientific, cat. 12634028), 10 mM HEPES (Thermo Fisher Scientific, cat. 15630080), 1X GlutaMAX supplement (Thermo Fisher Scientific, cat. 35050061), 0.1 mg/mL primocin (InvivoGen, San Diego, CA, cat. ant-pm-2), 10% defined fetal bovine serum, heat inactivated (HyClone Laboratories Inc., Logan, UT, cat. SH30070.03HI), 50% L-WRN conditioned media (ATCC, cat. CRL-3276), 1.25 mM N-Acetyl-L-cysteine (Sigma-Aldrich, cat. A9165), 10 mM nicotinamide (Sigma-Aldrich, cat. N0636), 1X B-27 supplement (Thermo Fisher Scientific, cat. 17504044), 1X N-2 supplement (Thermo Fisher Scientific, cat. 17502048), and 10 microM Y-27632 dihydrochloride (Tocris Bioscience, Bristol, United Kingdom, cat. 1254). The 624824-186-R-J2-PDC line was cultured in 6C/Colon 1B media, which includes all 6A media components plus 50 ng/mL human EGF recombinant protein (Thermo Fisher Scientific, cat. PHG0311). […]

[1] = second compound 0.00316 µM, first compound 0.0316 µM
[2] = second compound 0.00316 µM, first compound 0.1 µM
[3] = second compound 0.00316 µM, first compound 0.316 µM
[4] = second compound 0.00316 µM, first compound 1 µM
[5] = second compound 0.00316 µM, first compound 3.16 µM
[6] = second compound 0.00316 µM, first compound 10 µM
[7] = second compound 0.01 µM, first compound 0.0316 µM
[8] = second compound 0.01 µM, first compound 0.1 µM
[9] = second compound 0.01 µM, first compound 0.316 µM
[10] = second compound 0.01 µM, first compound 1 µM
[11] = second compound 0.01 µM, first compound 3.16 µM
[12] = second compound 0.01 µM, first compound 10 µM
[13] = second compound 0.0316 µM, first compound 0.0316 µM
[14] = second compound 0.0316 µM, first compound 0.1 µM
[15] = second compound 0.0316 µM, first compound 0.316 µM
[16] = second compound 0.0316 µM, first compound 1 µM
[17] = second compound 0.0316 µM, first compound 3.16 µM
[18] = second compound 0.0316 µM, first compound 10 µM
[19] = second compound 0.1 µM, first compound 0.0316 µM
[20] = second compound 0.1 µM, first compound 0.1 µM
[21] = second compound 0.1 µM, first compound 0.316 µM
[22] = second compound 0.1 µM, first compound 1 µM
[23] = second compound 0.1 µM, first compound 3.16 µM
[24] = second compound 0.1 µM, first compound 10 µM
[25] = second compound 0.316 µM, first compound 0.0316 µM
[26] = second compound 0.316 µM, first compound 0.1 µM
[27] = second compound 0.316 µM, first compound 0.316 µM
[28] = second compound 0.316 µM, first compound 1 µM
[29] = second compound 0.316 µM, first compound 3.16 µM
[30] = second compound 0.316 µM, first compound 10 µM
[31] = second compound 1 µM, first compound 0.0316 µM
[32] = second compound 1 µM, first compound 0.1 µM
[33] = second compound 1 µM, first compound 0.316 µM
[34] = second compound 1 µM, first compound 1 µM
[35] = second compound 1 µM, first compound 3.16 µM
[36] = second compound 1 µM, first compound 10 µM
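Further: spheroids exposed to agents for seven days before readout.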

CC1(C)CCC(CN2CCN(c3ccc(C(=O)NS(=O)(=O)c4ccc(NCC5CCOCC5)c([N+](=O)[O-])c4)c(Oc4cnc5[nH]ccc5c4)c3)CC2)=C(c2ccc(Cl)cc2)C1 + CC(Nc1ccc2c(c1)OCCn1cc(N3C(=O)OCC3C(F)F)nc1-2)C(N)=O
inactive: viability, T/C [1] 109% | viability, T/C [2] 94.4% | viability, T/C [3] 92.3% | viability, T/C [4] 87.3% | viability, T/C [5] 86.3% | viability, T/C [6] 84.2% | viability, T/C [7] 92.4% | viability, T/C [8] 85.5% | viability, T/C [9] 101% | viability, T/C [10] 83.2% | viability, T/C [11] 93% | viability, T/C [12] 74.5% | viability, T/C [13] 95.5% | viability, T/C [14] 96% | viability, T/C [15] 94.3% | viability, T/C [16] 96.2% | viability, T/C [17] 96.9% | viability, T/C [18] 77.2% | viability, T/C [19] 87.7% | viability, T/C [20] 96.1% | viability, T/C [21] 87% | viability, T/C [22] 97.1% | viability, T/C [23] 90.4% | viability, T/C [24] 73.7% | viability, T/C [25] 85.2% | viability, T/C [26] 83.8% | viability, T/C [27] 93.9% | viability, T/C [28] 88.3% | viability, T/C [29] 81.2% | viability, T/C [30] 74.1% | viability, T/C [31] 93.7% | viability, T/C [32] 82.3% | viability, T/C [33] 85.8% | viability, T/C [34] 89.6% | viability, T/C [35] 82.6% | viability, T/C [36] 72.8%
> 10 µM: IC50 (second compound 0.00316 µM) | IC50 (second compound 0.01 µM) | IC50 (second compound 0.0316 µM) | IC50 (second compound 0.1 µM) | IC50 (second compound 0.316 µM) | IC50 (second compound 1 µM)

C[C@@H](NC(=O)c1ncnc(N)c1Cl)c1ncc(C(=O)Nc2cc(C(F)(F)F)c(Cl)cn2)s1 + CC(Nc1ccc2c(c1)OCCn1cc(N3C(=O)OCC3C(F)F)nc1-2)C(N)=O
inactive: viability, T/C [1] 98.9% | viability, T/C [2] 84% | viability, T/C [3] 99.5% | viability, T/C [4] 108% | viability, T/C [5] 93.8% | viability, T/C [6] 90% | viability, T/C [7] 95% | viability, T/C [8] 76% | viability, T/C [9] 103% | viability, T/C [10] 103% | viability, T/C [11] 108% | viability, T/C [12] 89% | viability, T/C [13] 80.3% | viability, T/C [14] 102% | viability, T/C [15] 100% | viability, T/C [16] 116% | viability, T/C [17] 96.7% | viability, T/C [18] 79.3% | viability, T/C [19] 90.3% | viability, T/C [20] 93.1% | viability, T/C [21] 102% | viability, T/C [22] 93.8% | viability, T/C [23] 103% | viability, T/C [24] 69% | viability, T/C [25] 87.7% | viability, T/C [26] 85.9% | viability, T/C [27] 91.7% | viability, T/C [28] 93.6% | viability, T/C [29] 84.5% | viability, T/C [30] 76.6% | viability, T/C [31] 77.7% | viability, T/C [32] 84.6% | viability, T/C [33] 95.4% | viability, T/C [34] 93% | viability, T/C [35] 83% | viability, T/C [36] 63.6%
> 10 µM: IC50 (second compound 0.00316 µM) | IC50 (second compound 0.01 µM) | IC50 (second compound 0.0316 µM) | IC50 (second compound 0.1 µM) | IC50 (second compound 0.316 µM) | IC50 (second compound 1 µM)
